Measurements as given in patent publication US10537583B2, “Oral formulation of A-nor-5α androstane compound” (priority 2014, dated 2020).
Where two headings read alike, the source gives them in different places.

Key:
Caco-2 cells [1] = system: Caco-2 cells
Description: The qualified Transwell plate was taken. The nutrient solution comprising drugs was prepared by using Hank's balanced salt solution (HBSS) to study the bidirectional transfer of A-nor-5α-androstane compounds (Ia) with different concentrations in Caco-2 cells.

[2] = Beagle dogs, 1.0 mg/kg by gastric gavage
[3] = From the text: It mainly relies on passive diffusion mechanism for transport, uptake and absorb in the body and the uptake amounts are dependent on the time and dose. A-nor-5α-androstane compound can be administered by oral pathway. […] Therefore, an oral formulation, such as ordinary oral tablet, oral capsule and other sustained-release preparation, is designed according to the present invention.
[4] = for Ka (absorption rate constant) / P (cumulative absorption percentage) / Q (absorption dose in 2 hours): n = 3
Description: A suitable concentration of intestinal circulating liquid comprising A-nor-5α-androstane compounds (Ia) was prepared by using PBS (pH 5.5 and pH 6.8) containing phenol red. Rats were fasting over 12 hours before the experiment and then subjected to intraperitoneal injection with urethane solution (dose 4 mL/kg) at a concentration of 0.3 g/ml for anesthesia. The rats were fixed and a 3 cm incision was made along the medioventral line. The duodenum (start from 1 cm below the pyloru, intestinal circulating fluid comprising A-nor-5α androstane compound, pH 5.5), the jejunum (start from […], intestinal circulating fluid comprising A-nor-5α androstane compound, pH 6.8), and the ileum (start from 30 cm below the pylorus, intestinal circulating fluid comprising A-nor-5α androstane compound, pH 6.8) were incubated and ligated. Preheated saline (37° C.) was used to clean the intestinal contents, and then the air (37° C.) was ventilated into the intestine to remove the saline. The wound was covered with dressing, and infrared lamp was used to keep warm (37° C.). The reflux device was connected and after 50 ml of drug-containing circulating fluid at a constant temperature of 37° C. was balanced at 3 mL/min for 5 min, timing was started when the flow rate was adjusted to 1 mL/ml. Samples (1 mL for each) were taken at 0, 15, 30, 45, 60, 90, and 120 min, while adding blank circulating fluid (1 mL). The sample was subjected to HPLC analysis after appropriate treatment. The volume of circulating fluid was corrected according to the concentration of phenol red. Then the remained amounts of drug X were calculated by the concentration of A-nor-5α androstane compounds and the volume of circulating fluid. Line slope is the absorption rate constant (Ka) of a drug. The cumulative absorption percentage (P) of the drug is obtained by comparing the absorption dose (Q) of a drug in 2 hours to the initial dose (X0) before absorption.

Caco-2 cells [5] = system: Caco-2 cells; remark: listed apart in the source
Description: Caco-2 cells were spotted on a six-well plate. When the cells were grown to an inoculation density of 8×10^4 cells/mL, the cells were cultured with the drug-containing medium. The relationship between cells uptake and uptake time, the concentration of A-nor-5α-androstane compound (Ia) were examined. After the experiment was completed, the cells were scraped off and the cells were broken by multiple freezing-thawing. The samples of the cells were precipitated by acetonitrile and then subjected to HPLC analysis.

[6] = 37° C., 72 hours, n = 3
Description: Phosphate buffer solution (PBS) with different pH was prepared (pH is 1.0, 5.0, 5.5, 5.8, 6.0, 6.8 and 7.4). The equilibrium solubility of A-nor-5α androstane compounds (Ia) in PBS with different pH was determined by using Equilibrium Method. Method: 5 mL of each medium was removed into test tubes with plug and about 30 mg of crude drugs comprising A-nor-5α androstane compounds were added into the tubes respectively. The tubes were subjected to a thermostatic oscillator (37° C.) and vibrated at 100 rpm. After 72 hours, the sample was taken and subjected to HPLC analysis.

[7] = n-octanol, 37° C., n = 3
Description: PBS with different pH was prepared, and oil-water partition coefficient of A-nor-5α androstane compound (Ia) in a buffer solution with different pH (e.g., 2.0, 4.5, 5.0, 6.0, 6.8, 7.4, respectively) was determined by shake-flask method. Water-saturated n-octanol was used to prepare a stock solution of A-nor-5α androstane compound, concentration of which was about 10 mg/mL. A variety of n-octanol-saturated PBS and aqueous solution (5 ml) was taken and added into glass tubes with plug. 0.5 mL of stock solution of A-nor-5α-androstane compound was added. The tubes were sealed completely and subjected to a 37° C. thermostatic oscillator, and sampled after shaking for 24 h. Samples from water phase and oil phase were taken for analysis by HPLC, respectively. The drug concentrations in water and oil phase were calculated. According to […], oil-water partition coefficient (Log P) was calculated and the results are shown in Table 2.

[8] = rat duodenum, circulating fluid pH 5.5
[9] = rat ileum, circulating fluid pH 6.8
[10] = rat jejunum, circulating fluid pH 6.8
[11] = rat jejunum, concentration 25.0 μg/mL
[12] = rat jejunum, concentration 50.0 μg/mL
[13] = rat jejunum, concentration 100.0 μg/mL

For `C#C[C@@]1(O)C[C@@H]2CC[C@@H]3[C@H](CC[C@@]4(C)[C@H]3CC[C@@]4(O)C#C)[C@@]2(C)C1` [Ia, 2α, 17α-diethynyl-A-nor-5α-androstane-2β, 17β-dihydroxy compound], the “apparent permeability coefficient (Papp)” value (Caco-2 cells [1]; all Papps under various conditions) was over 1 ×10⁻⁶ cm/s, the “ER (efflux rate)” value (Caco-2 cells [1]; concentration 0.5 mg/mL) was 1.94 and the “Papp A-B” value (Caco-2 cells [1]; concentration 0.5 mg/mL) was 2.59 ± 0.17 ×10^−6 cm/s. The “Papp B-A” value (Caco-2 cells [1]; concentration 0.5 mg/mL) was 5.02 ± 0.50 ×10^−6 cm/s, the “ER (efflux rate)” value (Caco-2 cells [1]; concentration 0.75 mg/mL) was 1.62 and the “Papp A-B” value (Caco-2 cells [1]; concentration 0.75 mg/mL) was 4.00 ± 0.15 ×10^−6 cm/s. For the same molecule, the “Papp B-A” value (Caco-2 cells [1]; concentration 0.75 mg/mL) was 6.46 ± 0.71 ×10^−6 cm/s, the “ER (efflux rate)” value (Caco-2 cells [1]; concentration 1.0 mg/mL) was 1.82 and the “Papp A-B” value (Caco-2 cells [1]; concentration 1.0 mg/mL) was 4.98 ± 0.16 ×10^−6 cm/s. For the same molecule, the “Papp B-A” value (Caco-2 cells [1]; concentration 1.0 mg/mL) was 9.07 ± 0.35 ×10^−6 cm/s, the absolute bioavailability ([2]; based on AUC0-t of crude drug) was 56.8% and the absolute bioavailability ([2]; based on AUC0-t of total main metabolites in vivo) was 93.0%. For the same molecule, the water dissolution rate [3] was 6.5 µg/mL, the “Ka (absorption rate constant)” value [4, 8] was 4.27 ± 1.53 ×10^−3 min and the “P (cumulative absorption percentage)” value [4, 8] was 45.48 ± 9.33%. For the same molecule, the “Q (absorption dose in 2 hours)” value [4, 8] was 324.42 ± 65.21 μg/2 h, the “Ka (absorption rate constant)” value [4, 9] was 7.57 ± 2.56 ×10^−3 min and the “P (cumulative absorption percentage)” value [4, 9] was 65.23 ± 11.80%. For the same molecule, the “Q (absorption dose in 2 hours)” value [4, 9] was 1603.03 ± 289.37 μg/2 h, the “Ka (absorption rate constant)” value [4, 10] was 9.53 ± 4.22 ×10^−3 min and the “P (cumulative absorption percentage)” value [4, 10] was 71.68 ± 13.48%. The “Q (absorption dose in 2 hours)” value [4, 10] was 1809.26 ± 369.52 μg/2 h, the “Ka (absorption rate constant)” value [4, 11] was 18.87 ± 2.94 ×10^−3 min and the “P (cumulative absorption percentage)” value [4, 11] was 90.27 ± 3.28%. The “Q (absorption dose in 2 hours)” value [4, 11] was 1063.39 ± 75.81 μg/2 h, the “Ka (absorption rate constant)” value [4, 12] was 9.53 ± 4.22 ×10^−3 min and the “P (cumulative absorption percentage)” value [4, 12] was 71.68 ± 13.48%. For the same molecule, the “Q (absorption dose in 2 hours)” value [4, 12] was 1809.26 ± 369.52 μg/2 h, the “Ka (absorption rate constant)” value [4, 13] was 5.50 ± 0.36 ×10^−3 min and the “P (cumulative absorption percentage)” value [4, 13] was 53.25 ± 2.77%. For the same molecule, the “Q (absorption dose in 2 hours)” value [4, 13] was 2636.52 ± 137.86 μg/2 h, the “relationship between absorption and concentration” value ([4]; rat jejunum, y=20.34x+649.7, r=0.9869) was “good linear relationship” and the absorption percentages ([4]; rat, both jejunum and ileum) was over 50%. For the same molecule, the “relationship of uptake amounts with uptake time” value (Caco-2 cells [5]; Y=0.204x+6.107, r=0.9952) was “linear relationship with the uptake time”, the “relationship of uptake amounts with concentration” value (Caco-2 cells [5]; y=40.59x−10.47, r=0.9994) was “linear relationship with the concentration” and the equilibrium solubility ([6]; pH 1.0 hydrochloric acid) was 7.85 ± 0.57 µg/mL. The equilibrium solubility ([6]; pH 5.0 PBS) was 14.73 ± 0.80 µg/mL, the equilibrium solubility ([6]; pH 5.5 PBS) was 45.73 ± 0.23 µg/mL and the equilibrium solubility ([6]; pH 5.8 PBS) was 70.52 ± 1.28 µg/mL. The equilibrium solubility ([6]; pH 6.0 PBS) was 144.54 ± 0.77 µg/mL, the equilibrium solubility ([6]; pH 6.8 PBS) was 1388.16 ± 90.95 µg/mL and the equilibrium solubility ([6]; pH 7.4 PBS) was 4507.97 ± 487.04 µg/mL. The LogP ([7]; buffer pH 2.0) was “∞”, the LogP ([7]; buffer pH 4.5) was 4.19 and the LogP ([7]; buffer pH 5.0) was 3.80. It also gave a LogP ([7]; buffer pH 6.0) of 2.52, a LogP ([7]; buffer pH 6.8) of 0.98 and a LogP ([7]; buffer pH 7.4) of 0.11.
